Experiment in all cases: KinomeScan profiling
What all share (type): binding

One experiment has as its target T1, PIK3CA(Q546K) (Homo sapiens, UniProt P42336, Q546K).
T1 construct: purchased KinomeScan® (panel service)
The conditions noted are these: read-out: % control. In short, it runs like this:
(§1)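 At 1 μM in DMSO, compounds are run through a broad 468-member kinase panel. The luminescent read-out is normalised so that vehicle gives 100% and a positive control gives 0%; any kinase falling below 35% is treated as a target.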

The target in a further experiment is T2, TNK1 (Homo sapiens, UniProt Q13470).
T2 sequence (Q13470 1-666): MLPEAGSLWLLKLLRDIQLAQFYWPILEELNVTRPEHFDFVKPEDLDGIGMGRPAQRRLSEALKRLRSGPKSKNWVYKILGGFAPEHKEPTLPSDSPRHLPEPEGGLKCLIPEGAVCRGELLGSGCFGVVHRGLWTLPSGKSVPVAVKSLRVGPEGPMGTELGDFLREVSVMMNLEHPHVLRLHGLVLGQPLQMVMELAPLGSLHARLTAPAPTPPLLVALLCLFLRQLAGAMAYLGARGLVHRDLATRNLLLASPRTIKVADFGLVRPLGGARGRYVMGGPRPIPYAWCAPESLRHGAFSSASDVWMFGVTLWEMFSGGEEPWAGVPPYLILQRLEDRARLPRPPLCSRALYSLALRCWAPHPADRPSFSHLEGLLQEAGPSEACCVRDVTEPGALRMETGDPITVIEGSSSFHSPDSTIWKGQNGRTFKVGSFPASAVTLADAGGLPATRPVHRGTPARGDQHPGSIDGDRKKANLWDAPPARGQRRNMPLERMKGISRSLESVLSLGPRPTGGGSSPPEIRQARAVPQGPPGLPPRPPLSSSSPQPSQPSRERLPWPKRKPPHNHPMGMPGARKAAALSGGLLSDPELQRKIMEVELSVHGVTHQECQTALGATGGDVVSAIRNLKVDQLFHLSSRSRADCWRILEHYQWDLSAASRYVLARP
The conditions noted are these: TNK1, 1 μM; read-out: % control. The method, boiled down:
as §1

The target of a further experiment is T3, SRPK1 (Homo sapiens, UniProt Q96SB4).
T3 construct: purchased KinomeScan® (panel service)
Particulars: SRPK1, 1 μM; read-out: % control. In short, it runs like this: as §1

Another experiment concerns the target T4, TAOK3 (Homo sapiens, UniProt Q9H2K8).
T4 sequence (Q9H2K8 1-898): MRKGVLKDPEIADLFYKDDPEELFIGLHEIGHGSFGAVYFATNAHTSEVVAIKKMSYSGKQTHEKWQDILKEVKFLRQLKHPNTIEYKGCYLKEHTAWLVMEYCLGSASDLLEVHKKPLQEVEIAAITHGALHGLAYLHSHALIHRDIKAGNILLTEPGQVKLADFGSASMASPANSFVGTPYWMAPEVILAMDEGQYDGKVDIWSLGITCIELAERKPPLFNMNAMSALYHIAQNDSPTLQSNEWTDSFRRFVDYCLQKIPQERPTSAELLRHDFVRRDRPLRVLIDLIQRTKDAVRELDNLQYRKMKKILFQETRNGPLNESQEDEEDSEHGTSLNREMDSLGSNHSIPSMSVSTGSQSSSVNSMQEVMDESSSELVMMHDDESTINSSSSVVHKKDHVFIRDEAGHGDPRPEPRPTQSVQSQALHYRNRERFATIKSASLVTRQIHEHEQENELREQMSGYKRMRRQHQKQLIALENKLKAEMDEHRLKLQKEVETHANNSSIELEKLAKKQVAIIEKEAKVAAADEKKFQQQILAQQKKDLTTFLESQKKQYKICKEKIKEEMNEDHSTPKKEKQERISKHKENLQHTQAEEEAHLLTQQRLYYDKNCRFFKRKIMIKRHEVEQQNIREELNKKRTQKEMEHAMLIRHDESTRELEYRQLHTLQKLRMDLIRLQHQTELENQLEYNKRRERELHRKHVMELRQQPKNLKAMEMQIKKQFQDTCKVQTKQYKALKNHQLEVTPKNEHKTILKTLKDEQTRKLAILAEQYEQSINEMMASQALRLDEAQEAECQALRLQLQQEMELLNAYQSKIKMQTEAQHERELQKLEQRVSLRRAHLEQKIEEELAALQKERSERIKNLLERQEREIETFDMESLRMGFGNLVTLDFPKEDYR
Particulars: TAOK3, 1 μM; read-out: % control. In short, it runs like this:
as §1

The next experiment has as its target T5, AURKC (Homo sapiens, UniProt Q9UQB9).
T5 construct: purchased KinomeScan®
T5 sequence (Q9UQB9 1-309): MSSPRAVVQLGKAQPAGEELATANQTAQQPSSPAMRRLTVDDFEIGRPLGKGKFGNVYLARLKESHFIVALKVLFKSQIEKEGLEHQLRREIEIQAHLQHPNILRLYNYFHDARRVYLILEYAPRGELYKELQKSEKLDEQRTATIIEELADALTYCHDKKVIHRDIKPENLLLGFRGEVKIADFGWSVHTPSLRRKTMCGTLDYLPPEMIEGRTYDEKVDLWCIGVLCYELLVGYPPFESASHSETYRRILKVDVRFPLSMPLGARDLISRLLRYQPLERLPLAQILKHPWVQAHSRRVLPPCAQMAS
Particulars: read-out: % control. The method, boiled down: as §1

A further experiment addresses T6, ITK (Homo sapiens, UniProt Q08881).
T6 construct: purchased KinomeScan®
T6 sequence (Q08881 1-620): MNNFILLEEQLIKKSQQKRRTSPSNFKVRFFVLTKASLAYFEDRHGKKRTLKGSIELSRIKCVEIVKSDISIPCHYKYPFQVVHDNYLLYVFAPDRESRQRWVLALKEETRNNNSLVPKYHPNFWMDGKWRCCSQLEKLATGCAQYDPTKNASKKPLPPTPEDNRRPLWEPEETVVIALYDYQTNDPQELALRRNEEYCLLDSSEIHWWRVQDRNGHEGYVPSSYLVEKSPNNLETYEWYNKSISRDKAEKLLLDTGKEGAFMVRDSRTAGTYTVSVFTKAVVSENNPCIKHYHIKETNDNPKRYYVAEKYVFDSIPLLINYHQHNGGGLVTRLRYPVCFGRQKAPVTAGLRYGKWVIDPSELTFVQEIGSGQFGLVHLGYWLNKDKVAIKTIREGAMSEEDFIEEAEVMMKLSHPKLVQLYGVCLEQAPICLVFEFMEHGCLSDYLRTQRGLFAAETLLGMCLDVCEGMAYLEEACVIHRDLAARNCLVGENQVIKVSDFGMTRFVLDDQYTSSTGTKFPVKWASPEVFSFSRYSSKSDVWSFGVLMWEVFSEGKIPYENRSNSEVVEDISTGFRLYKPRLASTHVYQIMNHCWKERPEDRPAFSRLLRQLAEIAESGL
Particulars: read-out: % control. In short, it runs like this:
as §1

The structures appear in SMILES notation.

T1 sequence (P42336 whole entry Q546K): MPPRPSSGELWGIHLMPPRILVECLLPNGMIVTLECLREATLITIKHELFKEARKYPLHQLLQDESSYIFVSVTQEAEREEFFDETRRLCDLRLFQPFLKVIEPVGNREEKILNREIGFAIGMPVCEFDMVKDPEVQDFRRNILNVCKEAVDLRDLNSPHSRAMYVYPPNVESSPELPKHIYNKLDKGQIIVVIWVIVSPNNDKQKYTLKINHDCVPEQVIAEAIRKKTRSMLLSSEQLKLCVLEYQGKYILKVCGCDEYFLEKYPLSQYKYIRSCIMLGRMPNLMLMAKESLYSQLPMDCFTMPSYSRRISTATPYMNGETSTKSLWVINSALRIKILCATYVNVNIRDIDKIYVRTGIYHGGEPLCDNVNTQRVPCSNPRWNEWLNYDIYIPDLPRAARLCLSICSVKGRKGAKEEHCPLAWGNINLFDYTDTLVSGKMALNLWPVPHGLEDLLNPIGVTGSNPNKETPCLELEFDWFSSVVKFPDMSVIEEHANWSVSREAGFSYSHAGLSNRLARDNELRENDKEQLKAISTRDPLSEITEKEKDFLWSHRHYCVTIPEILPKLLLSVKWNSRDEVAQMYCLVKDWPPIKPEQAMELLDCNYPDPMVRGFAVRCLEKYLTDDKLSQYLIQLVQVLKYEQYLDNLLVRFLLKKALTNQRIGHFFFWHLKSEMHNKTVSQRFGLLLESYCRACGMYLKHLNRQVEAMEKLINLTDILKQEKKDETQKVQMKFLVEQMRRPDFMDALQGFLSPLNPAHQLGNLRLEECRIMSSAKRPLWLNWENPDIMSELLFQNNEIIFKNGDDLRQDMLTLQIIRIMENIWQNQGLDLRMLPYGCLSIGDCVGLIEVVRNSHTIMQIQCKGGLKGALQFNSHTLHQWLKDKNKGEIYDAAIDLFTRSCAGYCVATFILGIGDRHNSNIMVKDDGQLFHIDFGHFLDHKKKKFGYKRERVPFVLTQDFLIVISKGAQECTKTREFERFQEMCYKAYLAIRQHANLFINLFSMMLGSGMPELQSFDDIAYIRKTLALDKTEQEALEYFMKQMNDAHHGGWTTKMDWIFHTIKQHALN
T3 sequence (Q96SB4 whole entry): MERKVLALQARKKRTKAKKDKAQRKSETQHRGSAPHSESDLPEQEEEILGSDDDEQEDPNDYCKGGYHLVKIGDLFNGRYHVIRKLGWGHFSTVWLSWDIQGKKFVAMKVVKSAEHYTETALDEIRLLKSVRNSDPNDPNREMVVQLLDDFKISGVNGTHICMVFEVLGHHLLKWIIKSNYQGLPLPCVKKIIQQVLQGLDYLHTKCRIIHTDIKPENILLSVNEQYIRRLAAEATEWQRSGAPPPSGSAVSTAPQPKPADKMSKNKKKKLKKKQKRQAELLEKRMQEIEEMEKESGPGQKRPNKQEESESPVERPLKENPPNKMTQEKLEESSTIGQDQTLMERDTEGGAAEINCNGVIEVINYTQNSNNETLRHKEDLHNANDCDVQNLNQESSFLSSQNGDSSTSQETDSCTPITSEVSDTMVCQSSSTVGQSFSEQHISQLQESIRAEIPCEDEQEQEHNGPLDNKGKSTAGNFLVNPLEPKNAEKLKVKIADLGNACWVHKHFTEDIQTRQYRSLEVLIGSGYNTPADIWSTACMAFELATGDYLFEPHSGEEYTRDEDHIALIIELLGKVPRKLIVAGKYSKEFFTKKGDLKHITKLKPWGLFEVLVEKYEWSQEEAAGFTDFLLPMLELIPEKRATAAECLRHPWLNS

For the molecule `CNc1c(-c2ccc(C(=O)N3CCC(N4CCOCC4)CC3)cc2)cnc2[nH]cc(Cl)c12` [Compound 96, (4-(3-chloro-4-(methylamino)-1H-pyrrolo[2,3-b]pyridin-5-yl)phenyl)(4-morpholinopiperidin-1-yl)methanone], the remaining binding at 1 µM on PIK3CA(Q546K) was determined as 100%; at TNK1 it was 83%; at SRPK1, 17%; on TAOK3, 91%; at AURKC it was 49%; on ITK it was 93%.
`O=C(c1ccc(-c2cnc3[nH]cc(Cl)c3c2NC2CCCC2)cc1)N1CCC(N2CCOCC2)CC1` [Compound 101, (4-(3-chloro-4-(cyclopentylamino)-1H-pyrrolo[2,3-b]pyridin-5-yl)phenyl)(4-morpholinopiperidin-1-yl)methanone]: the remaining binding at 1 µM on PIK3CA(Q546K) came out at 93%; at TNK1 it was 50%; at SRPK1 it was 27%; at TAOK3 it was 88%; on AURKC, 71%; at ITK, 90%.
On to `CNc1c(-c2cnn([C@H]3CCN(C(C)=O)C[C@@H]3F)c2)cnc2[nH]cc(Cl)c12` [Compound 77, 1-((3S,4S)-4-(4-(3-chloro-4-(methylamino)-1H-pyrrolo[2,3-b]pyridin-5-yl)-1H-pyrazol-1-yl)-3-fluoropiperidin-1-yl)ethan-1-one], for which the remaining binding at 1 µM at PIK3CA(Q546K) was 100%; at TNK1, 80%; at SRPK1 it was 10%; at TAOK3 it was 95%; at AURKC, 26%; at ITK, 71%.

(Values after patent publication US12275731B2, “Azaindole inhibitors of wild-type and mutant forms of LRRK2” (DANA-FARBER CANCER INSTITUTE, INC., priority 2018, dated 2025).)
